Reference: ChEMBL document CHEMBL6182943, “Identification of 4'-Thiouridine as an Orally Available Antiviral Agent Targeting Both RdRp and NiRAN Functions of SARS-CoV-2 Nsp12” (J Med Chem, 2025)
Active and inactive are the calls of the source. The rule behind the calls is not given here.

Experiments:
[1] = Cytotoxicity against African green monkey Vero cells assessed as reduction in cell viability incubated for 48 hrs by MTT assay; format: toxicity, cell-based; conditions: chlorocebus sabaeus
SARS-CoV-2 [2] = assay: Antiviral activity against SARS-CoV-2 infected in african green monkey Vero cells assessed as reduction in number of spike-protein expressing cells pre-infected for 30 mins followed by compound addition and measured 48 hrs post-infection by DAPI staining based immunofluorescence analysis; format: functional, organism-based; conditions: Severe acute respiratory syndrome coronavirus 2, Vero
[3] = Selectivity index, ratio of CC50 for cytotoxicity against African green monkey Vero cells to EC50 for antiviral activity against SARS-CoV-2 infected in african green monkey Vero cells assessed as reduction in number of spike-protein expressing cells; format: toxicity, cell-based; conditions: read-out: Ratio CC50/EC50
[4] = Selectivity index, ratio of CC50 for cytotoxicity against MDCK cells to EC50 for antiviral activity against Influenza B virus B/Lee/40 infected in MDCK cells assessed as reduction in virus-induced cytopathic effect; format: toxicity, cell-based; conditions: dog, read-out: Ratio CC50/EC50
dengue virus type 2 = assay: Antiviral activity against Dengue virus 2 infected in BHK-21 cells transfected with Renilla luciferase tagged viral subgenomic replicon incubated for 48 hrs by luciferase based assay; format: functional, organism-based; conditions: BHK-21, 48 h
Influenza B virus = assay: Antiviral activity against Influenza B virus B/Lee/40 infected in MDCK cells assessed as reduction in virus-induced cytopathic effect incubated for 3 days in presence of TPCK-treated trypsin by MTT assay; format: functional, organism-based; conditions: B/Lee/40, MDCK, 72 h
[5] = Selectivity index, ratio of CC50 for cytotoxicity against MDCK cells to EC50 for antiviral activity against Influenza A virus A/Puerto Rico/8/34 (H1N1) infected in MDCK cells assessed as reduction in virus-induced cytopathic effect; format: toxicity, cell-based; conditions: dog, read-out: Ratio CC50/EC50
[6] = Selectivity index, ratio of CC50 for cytotoxicity against golden hamster BHK-21 cells to EC50 for antiviral activity against Dengue virus 2 infected in BHK-21 cells transfected with Renilla luciferase tagged viral subgenomic replicon; format: toxicity, cell-based; conditions: read-out: Ratio CC50/EC50
Influenza A virus (H1N1) = assay: Antiviral activity against Influenza A virus A/Puerto Rico/8/34 (H1N1) infected in MDCK cells assessed as reduction in virus-induced cytopathic effect incubated for 3 days in presence of TPCK-treated trypsin by MTT assay; format: functional, organism-based; conditions: 72 h
Influenza A virus = assay: Antiviral activity against Influenza A virus A/Hong Kong/8/68 (H3N2) infected in MDCK cells assessed as reduction in virus-induced cytopathic effect incubated for 3 days in presence of TPCK-treated trypsin by MTT assay; format: functional, organism-based; conditions: 72 h
[7] = Cytotoxicity against MDCK cells assessed as reduction in cell viability incubated for 3 days by MTT assay; format: toxicity, cell-based, Canis lupus familiaris; conditions: dog, time 3 day
[8] = Selectivity index, ratio of CC50 for cytotoxicity against MDCK cells to EC50 for antiviral activity against Influenza A virus A/Hong Kong/8/68 (H3N2) infected in MDCK cells assessed as reduction in virus-induced cytopathic effect; format: toxicity, cell-based; conditions: dog, read-out: Ratio CC50/EC50
[9] = Cytotoxicity against golden hamster BHK-21 cells assessed as reduction in cell viability by MTT assay; format: toxicity, cell-based, Mesocricetus auratus
[10] = molecular target: Replicase polyprotein 1ab (Severe acute respiratory syndrome coronavirus 2) (UniProt P0DTD1); assay: Inhibition of SARS-CoV-2 Nsp12-Nsp7-Nsp8-2 RNA dependent RNA polymerase activity using partially double stranded RNA as substrate assessed as generation of abortive transcripts by mis-incorporation into RNA at 100 uM incubated for 30 mins in presence of UTP and GTP/CTP by gel electrophoresis based primer extension assay
[11] = molecular target: Replicase polyprotein 1ab (Severe acute respiratory syndrome coronavirus 2) (UniProt P0DTD1); assay: Inhibition of SARS-CoV-2 Nsp12-Nsp7-Nsp8-2 RNA dependent RNA polymerase activity using partially double stranded RNA as substrate assessed as generation of abortive transcripts by mis-incorporation into RNA at 100 uM incubated for 30 mins in presence of UTP by gel electrophoresis based primer extension assay
[12] = molecular target: Replicase polyprotein 1ab (Severe acute respiratory syndrome coronavirus 2) (UniProt P0DTD1); assay: Inhibition of SARS-CoV-2 Nsp12-Nsp7-Nsp8-2 RNA dependent RNA polymerase activity using partially double stranded RNA as substrate assessed as accumulation of abortive transcripts at 2.5 to 250 uM incubated for 30 mins in presence of UTP,ATP and GTP/CTP by gel electrophoresis based primer extension assay; conditions: dose 2.5-250 µM
[13] = molecular target: Replicase polyprotein 1ab (Severe acute respiratory syndrome coronavirus 2) (UniProt P0DTD1); assay: Inhibition of SARS-CoV-2 Nsp12-Nsp7-Nsp8-2 RNA dependent RNA polymerase activity using partially double stranded RNA as substrate assessed as reduction in RNA elongation at 1 to 100 uM incubated for 30 mins in presence of UTP and GTP/CTP by gel electrophoresis based primer extension assay; conditions: dose 1-100 µM
SARS-CoV-2 [14] = assay: Antiviral activity against SARS-CoV-2 infected in hACE2 expressing female B6.Cg-Tg(K18-ACE2)2Prlmn/J mouse model assessed as reduction in body weight loss at 50 mg/kg, po preadministered twice daily for 4 days at 8 hrs interval with four hours before and after viral challenge and measured 14 days post viral challenge; format: functional, organism-based; conditions: Severe acute respiratory syndrome coronavirus 2, time 14.0 day
SARS-CoV-2 [15] = assay: Antiviral activity against SARS-CoV-2 infected in hACE2 expressing female B6.Cg-Tg(K18-ACE2)2Prlmn/J mouse model assessed as survival at 50 mg/kg, po preadministered twice daily for 4 days at 8 hrs interval with four hours before and after viral challenge and measured 14 days post viral challenge relative to control; format: functional; conditions: Severe acute respiratory syndrome coronavirus 2, 336 h, time 14 day
SARS-CoV-2 [16] = assay: Antiviral activity against SARS-CoV-2 infected in hACE2 expressing female B6.Cg-Tg(K18-ACE2)2Prlmn/J mouse model assessed as reduction in body weight loss at 50 mg/kg, po preadministered twice daily for 4 days at 8 hrs interval with four hours before and after viral challenge and measured 8 days post viral challenge; format: functional, organism-based; conditions: Severe acute respiratory syndrome coronavirus 2, time 8.0 day
[17] = system: Severe acute respiratory syndrome coronavirus 2; assay: Inhibition of SARS-CoV-2 Nsp9/Nsp12 using 5'-pppLS10 as substrate assessed as inhibition of NiRAN-mediated AMPylation of Nsp9 at 1 to 100 uM preincubated for 5 mins followed by ATP and [alpha-32P]ATP addition and measured after 10 mins by phosphorimaging based SDS-PAGE analysis; conditions: dose 1-100 µM, time 15.0 min
[18] = molecular target: Replicase polyprotein 1ab (Severe acute respiratory syndrome coronavirus 2) (UniProt P0DTD1); assay: Inhibition of SARS-CoV-2 Nsp12-Nsp7-Nsp8-2 RNA dependent RNA polymerase activity using partially double stranded RNA as substrate assessed as accumulation of abortive transcripts incubated for 30 mins in presence of UTP,ATP and GTP/CTP by gel electrophoresis based primer extension assay; conditions: dose 2.5-250 µM
[19] = molecular target: Replicase polyprotein 1ab (Severe acute respiratory syndrome coronavirus 2) (UniProt P0DTD1); assay: Inhibition of SARS-CoV-2 Nsp12-Nsp7-Nsp8-2 RNA dependent RNA polymerase activity using partially double stranded RNA as substrate assessed as generation of abortive transcripts by mis-incorporation into RNA at 100 uM incubated for 30 mins in presence of ATP by gel electrophoresis based primer extension assay
[20] = system: Severe acute respiratory syndrome coronavirus 2; assay: Inhibition of SARS-CoV-2 Nsp9/Nsp12 using 5'-pppLS10 as substrate assessed as inhibition of NiRAN-mediated UMPylation of Nsp9 at 1 to 100 uM preincubated for 5 mins followed by UTP and [alpha-32P]UTP addition and measured after 10 mins by phosphorimaging based SDS-PAGE analysis; conditions: dose 1-100 µM, time 15.0 min
[21] = molecular target: Replicase polyprotein 1ab (Severe acute respiratory syndrome coronavirus 2) (UniProt P0DTD1); assay: Inhibition of SARS-CoV-2 Nsp12-Nsp7-Nsp8-2 RNA dependent RNA polymerase activity using partially double stranded RNA as substrate assessed as mis-incorporation into RNA by measuring increase in abortive transcripts length incubated for 30 mins in presence of ATP by gel electrophoresis based primer extension assay; conditions: dose 1-100 µM
[22] = system: Severe acute respiratory syndrome coronavirus 2; assay: Inhibition of SARS-CoV-2 Nsp9/Nsp12 using 5'-pppLS10 as substrate assessed as inhibition of NiRAN-mediated RNAylation of Nsp9 by measuring increase in compound-conjugated Nsp9 incubated for 1 hrs by coomassie blue staining based SDS-PAGE analysis; conditions: dose 1-100 µM
SARS-CoV-2 [23] = assay: Antiviral activity against SARS-CoV-2 infected in African green monkey Vero cells assessed as reduction in viral N protein level at 0.1 uM measured after 1 day by Western blot analysis; format: functional, organism-based; conditions: Severe acute respiratory syndrome coronavirus 2
[24] = system: Severe acute respiratory syndrome coronavirus 2; assay: Inhibition of SARS-CoV-2 Nsp9/Nsp12 using 5'-pppLS10 as substrate assessed as inhibition of NiRAN-mediated RNAylation of Nsp9 by measuring increase in compound-conjugated Nsp9 at 1 to 100 uM incubated for 1 hrs by coomassie blue staining based SDS-PAGE analysis; conditions: dose 1-100 µM
[25] = molecular target: Replicase polyprotein 1ab (Severe acute respiratory syndrome coronavirus 2) (UniProt P0DTD1); assay: Inhibition of SARS-CoV-2 Nsp12-Nsp7-Nsp8-2 RNA dependent RNA polymerase activity using partially double stranded RNA as substrate assessed as generation of abortive transcripts by mis-incorporation into RNA at 100 uM incubated for 30 mins in presence of ATP and GTP/CTP by gel electrophoresis based primer extension assay

Cc1cn([C@@H]2S[C@H](CO)[C@@H](O)[C@H]2O)c(=O)[nH]c1=O
CC50 at 48 h [1]: > 100 µM
EC50 (SARS-CoV-2 [2]): > 100 µM

Nc1ncnc2c1ncn2[C@@H]1S[C@H](CO)[C@@H](O)[C@H]1O
CC50 at 48 h [1]: 94.3 µM
EC50 (SARS-CoV-2 [2]): 8.82 µM
selectivity ratio [3]: 10.7

Nc1nc2c(ncn2[C@@H]2S[C@H](CO)[C@@H](O)[C@H]2O)c(=O)[nH]1
CC50 at 48 h [1]: > 100 µM
EC50 (SARS-CoV-2 [2]): 48.3 µM
selectivity ratio [3]: > 2.07

NC(=O)c1ncn([C@@H]2O[C@H](CO)[C@@H](O)[C@H]2O)n1 [RIBAVIRIN]
selectivity ratio [4]: > 6.39
EC50 (dengue virus type 2): 3.47 µM
EC50 (Influenza B virus): 15.7 µM
selectivity ratio [5]: > 5.77
selectivity ratio [6]: > 28.8
EC50 (Influenza A virus (H1N1)): 17.3 µM
EC50 (Influenza A virus): 17.2 µM
CC50 at 72 h [7]: > 100 µM
selectivity ratio [8]: > 5.82
CC50 [9]: > 100 µM

C[C@H](Cn1cnc2c(N)ncnc21)OCP(=O)(O)OP(=O)(O)OP(=O)(O)O
inhibition [10]: Active; Compound Produced A Primer Extension Of ~22 Nucleotides Similar To Atp Starvation Condition
inhibition ([11]; 100 uM): Active; Compound Produced A Primer Extension Of ~22 Nucleotides Similar To Atp Starvation Condition

N#C[C@@]1(c2ccc3c(N)ncnn23)O[C@H](COP(=O)(O)OP(=O)(O)OP(=O)(O)O)[C@@H](O)[C@H]1O
inhibition [12]: Minimal_effect
inhibition ([11]; dose 100.0 µM, time 30.0 min): Not active; Formation Of 27-Mer Product Observed
inhibition [13]: Not active; Formation Of Full-Length 40-Mer Product Is Still Prevented

CC(C)C(=O)OC[C@H]1O[C@@H](n2cc/c(=N\O)[nH]c2=O)[C@H](O)[C@@H]1O [MOLNUPIRAVIR]
Activity (SARS-CoV-2 [14]): Active
survival at 50 mg/kg (SARS-CoV-2 [15]): 60%
Activity (SARS-CoV-2 [16]): Active

Nc1ccn([C@@H]2S[C@H](CO)[C@@H](O)[C@H]2O)c(=O)n1
CC50 at 48 h [1]: > 100 µM
EC50 (SARS-CoV-2 [2]): 2.4 µM
selectivity ratio [3]: > 41.7

O=c1ccn([C@@H]2S[C@H](COP(=O)(O)OP(=O)(O)OP(=O)(O)O)[C@@H](O)[C@H]2O)c(=O)[nH]1
inhibition [17]: Active
inhibition [18]: Dose-dependent-effect
inhibition ([19]; 100 uM): Active; Compound Led To Rna Products Longer Than 20 Nucleotides But Did Not Reach 27-Mer Rna
inhibition [20]: Active
inhibition [21]: Dose-dependent-effect; Transcripts Remained Below 27 Nucleotides
inhibition [22]: Dose-dependent-effect

O=c1nc(NO)ccn1[C@@H]1O[C@H](CO)[C@@H](O)[C@H]1O [N-HYDROXYCYTIDINE]
CC50 at 48 h [1]: 38.6 µM
Activity (SARS-CoV-2 [23]): Active
EC50 (SARS-CoV-2 [2]): 1.03 µM
selectivity ratio [3]: 37.5

C[C@@]1(F)[C@H](O)[C@@H](COP(=O)(O)OP(=O)(O)OP(=O)(O)O)O[C@H]1n1cnc2c(=O)[nH]c(N)nc21
inhibition [24]: Active

CC(C)C(=O)OC[C@H]1S[C@@H](n2ccc(=O)[nH]c2=O)[C@H](O)[C@@H]1O
CC50 at 48 h [1]: > 100 µM
EC50 (SARS-CoV-2 [2]): 26.8 µM
selectivity ratio [3]: > 3.73

CC(C)OC(=O)[C@H](C)N[P@](=O)(OC[C@H]1S[C@@H](n2ccc(=O)[nH]c2=O)[C@H](O)[C@@H]1O)Oc1ccccc1
CC50 at 48 h [1]: > 100 µM
EC50 (SARS-CoV-2 [2]): > 100 µM

C[C@@]1(F)[C@H](O)[C@@H](COP(=O)(O)OP(=O)(O)OP(=O)(O)O)O[C@H]1n1ccc(=O)[nH]c1=O
inhibition ([19]; dose 100.0 µM, time 30.0 min): inactive
inhibition [25]: inactive
